# Experimental data: patent publication US12501900B2, “Heterocyclyl pyridazine as fungicidal compounds” (Bayer Aktiengesellschaft, priority 2018, dated 2025)
# Read-outs that look alike come from different tables or passages of the source.
# Experiment: Measurement of LogP values by HPLC on reversed phase columns (EEC directive 79/831 Annex V.A8), methods [a], [b], [c]
# Type: physicochemical
# Procedure: Measurement of Log P values as provided herein was performed according to EEC directive 79/831 Annex V.A8 by HPLC (High Performance Liquid Chromatography) on reversed phase columns with the following methods: • ^[a]
# If more than one Log P value is available within the same method, all the values are given and separated by “+”.
# Lambda-max-values were determined using UV-spectra from 200 nm to 400 nm and the peak values of the chromatographic signals
# [1] = method [a], Table 9, compounds of formula (4)
# [2] = method [a]: LC-UV, acidic range, 0.1% formic acid in water and acetonitrile, Table 11, compounds of formula (6)
# [3] = method [a]: LC-UV, acidic range, 0.1% formic acid in water and acetonitrile, Table 7, compounds of formula (3)
# [4] = method [a]: LC-UV, acidic range, 0.1% formic acid in water and acetonitrile, Table 17, compounds of formula (10)
# [5] = method [a]: LC-UV, acidic range, 0.1% formic acid in water and acetonitrile, Table 3, compounds of formula (1)
# [6] = method [a], Table 19, compounds of formula (12), two values joined by & in some cells
# [7] = method [a]: LC-UV, acidic range, 0.1% formic acid in water and acetonitrile, Table 15, compounds of formula (9)
smiles,measurement,setting,value
"Cc1ccc(CC2CON=C(c3cc(Cl)nnc3Cl)N2)c(C)c1 (racemic) [7-01, rac-3-(3,6-dichloropyridazin-4-yl)-5-[(2,4-dimethylphenyl)methyl]-5,6-dihydro-4H-1,2,4-oxadiazine]",chromatographic logP,"method [a]: LC-UV, acidic range, 0.1% formic acid in water and acetonitrile, Table 13, compounds of formula (7)",2.98
"Cc1ccc(OCC(CON)NC(=O)c2cc(C)nnc2Oc2cccc(C(F)(F)F)c2)c(C)c1 (racemic) [4-33, 6-methyl-N-[rac-1-(aminooxymethyl)-2-(2,4-dimethylphenoxy)ethyl]-3-[3-(trifluoromethyl)phenoxy]pyridazine-4-carboxamide]",chromatographic logP,[1],3.13
"Cc1ccc(CC(CON2C(=O)c3ccccc3C2=O)NC(=O)c2cc(Cl)nnc2Cl)c(C)c1 (racemic) [6-01, 3,6-dichloro-N-[rac-1-[(2,4-dimethylphenyl)methyl]-2-(1,3-dioxoisoindolin-2-yl)oxy-ethyl]pyridazine-4-carboxamide]",chromatographic logP,[2],3.72
"Cc1ccc(OCC(CON2C(=O)c3ccccc3C2=O)NC(=O)c2cc(C)nnc2Oc2cccc(C(F)(F)F)c2)c(C)c1 (racemic) [3-33, 6-methyl-N-[rac-1-[(2,4-dimethylphenoxy)methyl]-2-(1,3-dioxoisoindolin-2-yl)oxy-ethyl]-3-[3-(trifluoromethyl)phenoxy]pyridazine-4-carboxamide]",chromatographic logP,[3],4.56
"CON(C)C(=O)c1cc(Cl)nnc1Oc1cccc(C(F)(F)F)c1 [1-07, 6-chloro-N-methoxy-N-methyl-3-[3-(trifluoromethyl)phenoxy]pyridazine-4-carboxamide]",chromatographic logP,"reversed phase HPLC column, method [a]: LC-UV, acidic range, 0.1% formic acid in water and acetonitrile, Table 3, compounds of formula (1)",2.9
"Cc1ccc(OCC(N)CON2C(=O)c3ccccc3C2=O)c(C)c1 (racemic) [2-12, 2-[rac-2-amino-3-(2,4-dimethylphenoxy)propoxy]isoindoline-1,3-dione 2,2,2-trifluoroacetate]",chromatographic logP,"reversed phase HPLC column, method [a]: LC-UV, acidic range, 0.1% formic acid in water and acetonitrile, Table 5, compounds of formula (2)",1.7
"Cc1ccc(CC(CON)NC(=O)c2cc(Cl)nnc2Oc2cccc(C(F)(F)F)c2)c(C)c1 (racemic) [4-17, 6-chloro-N-[rac-1-(aminooxymethyl)-2-(2,4-dimethylphenyl)ethyl]-3-[3-(trifluoro-methyl)phenoxy]pyridazine-4-carboxamide]",chromatographic logP,[1],3.37
NC(=NO)c1cc(Cl)nnc1Oc1cccc(C2CC2)c1 [10-08],LogP,[4],2.19^[a]
"Cc1ccc(CC(CON)NC(=O)c2cc(Cl)nnc2Cl)c(C)c1 (racemic) [6-02, 3,6-dichloro-N-[rac-1-(aminooxymethyl)-2-(2,4-dimethylphenyl)ethyl]pyridazine-4-carboxamide]",chromatographic logP,[2],1.93
"Cc1cc(C(N)=NO)c(Oc2cccc(C(F)(F)F)c2)nn1 [10-02, N′-hydroxy-6-methyl-3-[3-(trifluoromethyl)phenoxy]pyridazine-4-carboxamidine]",chromatographic logP,[4],1.69
"Cc1ccc(CC(CON2C(=O)c3ccccc3C2=O)NC(=O)c2cc(Cl)nnc2Oc2cccc(C(F)(F)F)c2)c(C)c1 (racemic) [3-16, 6-chloro-N-[rac-1-[(2,4-dimethylphenyl)methyl]-2-(1,3-dioxoisoindolin-2-yl)oxy-ethyl]-3-[3-(trifluoromethyl)phenoxy]pyridazine-4-carboxamide]",chromatographic logP,[3],5
CON(C)C(=O)c1cc(C)nnc1Oc1cccc(C(F)(F)F)c1 [1-03],LogP,[5],2.33^[a]
"Cc1ccc(OCC(CON2C(=O)c3ccccc3C2=O)NC(=O)OC(C)(C)C)c(C)c1 (racemic) [2-13, tert-butyl N-[rac-1-[(2,4-dimethylphenoxy)methyl]-2-(1,3-dioxoisoindolin-2-yl)oxy-ethyl]carbamate]",chromatographic logP,"method [a]: LC-UV, acidic range, 0.1% formic acid in water and acetonitrile, Table 5, compounds of formula (2)",4.51
"O=Cc1cc(Cl)nnc1Oc1cccc(C(F)(F)F)c1 [16-01, 6-chloro-3-[3-(trifluoromethyl)phenoxy]pyridazine-4-carbaldehyde]",chromatographic logP,"method [a]: LC-UV, acidic range, 0.1% formic acid in water and acetonitrile, Table 25, compound of formula (16)",2.04
"COc1ccc(C(=O)C(F)(F)ON=C(N)c2cc(C)nnc2Oc2cccc(C(F)(F)F)c2)cc1 [12-14, N′-[1,1-difluoro-2-(4-methoxyphenyl)-2-oxo-ethoxy]-6-methyl-3-[3-(trifluoro-methyl)phenoxy]pyridazine-4-carboxamidine]",chromatographic logP,[6],3.13
"Cc1c(Cl)nnc(Oc2cccc(C3CC3)c2F)c1C(=O)O [1-02, 6-chloro-3-(3-cyclopropyl-2-fluoro-phenoxy)-5-methyl-pyridazine-4-carboxylic acid]",chromatographic logP,[5],1.84
NC(=NO)c1cc(Cl)nnc1Oc1cccc(Br)c1F [10-05],LogP,[4],2.21^[a]
COc1cccc(Oc2nnc(Cl)cc2C#N)c1 [9-08],LogP,[7],2.75^[a]
"Cc1ccc(CC(CCl)NC(=NO)c2cc(Cl)nnc2Oc2cccc(C(F)(F)F)c2)c(C)c1 (centres unmarked) [20-01, 6-chloro-N-[1-(chloromethyl)-2-(2,4-dimethylphenyl)ethyl]-N′-hydroxy-3-[3-(trifluoromethyl)phenoxy]pyridazine-4-carboxamidine]",chromatographic logP,"method [a], Table 29, compounds of formula (20), read-out: Log P",4.34
"Cc1cc(C(N)=NOCC(=O)c2ccc(Cl)cc2)c(Oc2cccc(C(F)(F)F)c2)nn1 [12-03, N′-[2-(4-chlorophenyl)-2-oxo-ethoxy]-6-methyl-3-[3-(trifluoro-methyl)phenoxy]pyridazine-4-carboxamidine]",chromatographic logP,[6],3.42
"Cc1ccc(CC(CCl)NC(=O)c2cc(Cl)nnc2Oc2cccc(C(F)(F)F)c2)c(C)c1 (centres unmarked) [21-01, 6-chloro-N-[1-(chloromethyl)-2-(2,4-dimethylphenyl)ethyl]-3-[3-(trifluoro-methyl)phenoxy]pyridazine-4-carboxamide]",chromatographic logP,"method [a], Table 33, compounds of formula (21)",5
"O/N=C/c1cc(Cl)nnc1Oc1cccc(C(F)(F)F)c1 [17-01, 6-chloro-3-[3-(trifluoromethyl)phenoxy]pyridazine-4-carbaldehyde oxime]",chromatographic logP,"reversed phase HPLC column, method [a]: LC-UV, acidic range, 0.1% formic acid in water and acetonitrile, Table 27, compound of formula (17)",2.88
NC(=NO)c1cc(Cl)nnc1Oc1cccc(C(F)F)c1F [10-09],LogP,[4],1.91^[a]
"Cc1cc(C#N)c(Oc2cccc(C(F)(F)F)c2)nn1 [9-02, 6-methyl-3-[3-(trifluoromethyl)phenoxy]pyridazine-4-carbonitrile]",chromatographic logP,[7],2.84
NC(=NO)c1cc(Cl)nnc1Oc1cccc(Cl)c1 [10-04],LogP,[4],2.00^[a]
"N#Cc1cc(Cl)nnc1Oc1cccc(C(F)(F)F)c1 [9-03, 6-chloro-3-[3-(trifluoromethyl)phenoxy]pyridazine-4-carbonitrile]",chromatographic logP,[7],3.25
"C=CCON=C(N)c1cc(C)nnc1Oc1cccc(C(F)(F)F)c1 [13-01, N′-allyloxy-6-methyl-3-[3-(trifluoromethyl)phenoxy]pyridazine-4-carboxamidine]",chromatographic logP,"method [a]: LC-UV, acidic range, 0.1% formic acid in water and acetonitrile, Table 21, compounds of formula (13)",2.88
"Cc1cc(C2=NOCC(O)N2)c(Oc2cccc(C(F)(F)F)c2)nn1 (racemic) [14-01, rac-3-[6-methyl-3-[3-(trifluoromethyl)phenoxy]pyridazin-4-yl]-5,6-dihydro-4H-1,2,4-oxadiazin-5-ol]",chromatographic logP,"method [a]: LC-UV, acidic range, 0.1% formic acid in water and acetonitrile, Table 23, compounds of formula (14)",1.59
NC(=NO)c1cc(Cl)nnc1Oc1cccc(C2CC2)c1F [10-07],LogP,[4],2.34^[a]
